Results: patent EP4620949A1, “ACKR3 MODULATORS FOR CARDIOVASCULAR OR ANTIPLATELET THERAPY” (Eberhard Karls Universität Tübingen (Medizinische Fakultät), priority 2024, dated 2025)
Values joined by “and” are separate entries in the source; they are usually repeats but may differ in a detail not shown here. Equal values may be shown once.

Key:
human ACKR3 = biological target: T1, human ACKR3 (Homo sapiens, UniProt P25106); test: ACKR3 β-Arrestin recruitment assay (NanoLuc complementation, NanoBiT) in HEK293T cells; type: cell-based; conditions: for Efficacy (Emax) vs CXCL12: efficacy of CXCL12 at 300 nM set as 100%, average of three independent experiments
T1 construct: expressed in transfected cells; host or cells: HEK293T
Experimental: ACKR3 β-Arrestin Recruitment Assay. […] T.; Encell, L. P.; Wood, K. V. Nanoluc complementation reporter optimized for accurate measurement of protein interactions in cells. […] B.; Reynders, N.; Vanderplasschen, A.; Ollert, M.; Bouvier, M.; Szpakowska, M.; Chevigné, A. Proadrenomedullin n-terminal 20 peptides (pamps) are agonists of the chemokine scavenger receptor ACKR3/CXCR7. […] The prepared cells were then treated with compounds at concentrations ranging from 0.3 nM to 100 µM. Induction of β-Arrestin recruitment to receptors was evaluated by measuring bioluminescence with a Mithras LB940 luminometer (Berthold Technologies).
All curves were fitted to data points generated from the mean of at least three independent experiments. Results with values of p < 0.05 were considered statistically significant.

platelets [1] = test: Flow cytometry assay of platelet degranulation (P-Selectin surface expression in PRP); type: cell-based, human; conditions: PRP pre-incubated with compound (100 µM), then CRP-XL (1 µg/mL); % ±SEM normalized to CRP-XL-treated vehicle PRP
Experimental: Platelet Degranulation Studies of Derivatives. Concurrent with the β-Arrestin recruitment potency optimization, the compounds were also tested and developed according to their functional activity. To determine the ability of a compound to modulate platelets, P-Selectin surface expression was measured. P-Selectin is a surface protein involved in cell adhesion mechanisms and can be found on activated platelets. After induction of platelet aggregation in platelet-rich plasma (PRP), treatment with the respective compound should therefore lead to a significant reduction in P-Selectin expression. […]. […]. Similarly, platelet degranulation potency was highly sensitive toward "linker"-changes (Structure C, Table 1). A distinct trend could not be registered. […]. Flow Cytometry Assay. The inhibition of platelet degranulation was determined via flow cytometry experiments. Platelets were treated with collagen-related peptide (CRP-XL, CambCol Laboratories, Cambridge, UK) and the platelets' activation state was determined (Geue, S.; Aurbach, K.; Manke, M.-C.; Manukjan, G.; Münzer, P.; Stegner, D.; Brähler, C.; Walker-Allgaier, B.; Märklin, M.; Borst, C. E.; Quintanilla-Fend, L.; Rath, D.; Geisler, T.; Salih, H. R.; Seizer, P.; Lang, F.; Nieswandt, B.; Gawaz, M.; Schulze, H.; Pleines, I.; Borst, O. Pivotal role of pdk1 in megakaryocyte cytoskeletal dynamics and polarization during platelet biogenesis. Blood 2019, 134, 1847-1858; and Malehmir, M.; Pfister, D.; Gallage, S.; Szydlowska, M.; Inverso, D.; Kotsiliti, E.; Leone, V.; Peiseler, M.; Surewaard, B. G. J.; Rath, D.; Ali, A.; Wolf, M. J.; Drescher, H.; Healy, M. E.; Dauch, D.; Kroy, D.; Krenkel, O.; Kohlhepp, M.; Engleitner, T.; Olkus, A.; Sijmonsma, T.; Volz, J.; Deppermann, C.; Stegner, D.; Helbling, P.; Nombela-Arrieta, C.; Rafiei, A.; Hinterleitner, M.; Rail, M.; Baku, F.; Borst, O.; Wilson, C. L.; Leslie, J.; O'Connor, T.; Wes-ton, C. J.; Chauhan, A.; Adams, D. H.; Sheriff, L.; Teijeiro, A.; Prinz, M.; Bogeska, R.; An-stee, N.; Bongers, M. N.; Notohamiprodjo, M.; Geisler, T.; Withers, D. J.; Ware, J.; Mann, D. A.; Augustin, H. G.; Vegiopoulos, A.; Milsom, M. D.; Rose, A. J.; Lalor, P. F.; Llovet, J. M.; Pinyol, R.; Tacke, F.; Rad, R.; Matter, M.; Djouder, N.; Kubes, P.; Knolle, P. A.; Unger, K.; Zender, L.; Nieswandt, B.; Gawaz, M.; Weber, A.; Heikenwalder, M. Platelet gpibα is a mediator and potential interventional target for nash and subsequent liver cancer. Nat. Med. 2019, 25, 641-655). Briefly, PRP was isolated from peripheral human blood collected in citrate-phosphate-dextrose solution with adenine (CPDA) and diluted with phosphate-buffered saline (PBS) (Sigma Aldrich Co., Ltd., St. Luis, Missouri, USA) supplemented with CaCl2 and MgCl2. PRP (106 platelets /sample) was preincubated with the respective compound (100 µM) for 15 min. Samples were treated with 1 µg/ml CRP-XL (CambCol Laboratories, Cambridge, UK) for 30 min at room temperature in the presence of the respective fluorochrome-conjugated antibody against P-Selectin (CD62P-FITC; Beckman Coulter, Brea, CA, USA). Subsequently, samples were fixed in 0.5% paraformaldehyde and analyzed on a FACS-Calibur flow cytometer (FACS-Caliber flow cytometer, Becton-Dickinson, East Rutherford, NJ, USA). Mean fluorescence intensity (MFI) was used as a quantitative measurement of platelet surface expression.

platelets [2] = test: Light transmission platelet aggregation experiments; type: cell-based; conditions: preincubation with 100 µM ACKR3 agonist, activation with 2.5 µM ADP; compared to the control
Experimental: Platelet aggregation studies. To further evaluate the compounds inhibitory potential of platelet aggregation, aggregation experiments were conducted.
Aggregation experiments. For the light transmission aggregation experiments, citrate anticoagulated blood from healthy donors was used. To obtain platelet-rich plasma, whole blood was centrifuged at 210 × g for 20 min at room temperature. 1 × 10^8 platelets were preincubated with 100 µM ACKR3 agonist for 15 min at 37°C. Subsequently, platelets were activated with 2.5 µM ADP and aggregation was analyzed for 5 min at 1,000 rpm and 37°C using a light transmission aggregometer (Aggregometer 490-X; Chrono-Log Corp., Havertown, Pennsylvania, United States). Maximum platelet aggregation and the area under the curve were quantified using Aggrolink8 software (Chrono-Log Corp., Havertown, Pennsylvania, United States).

Kinetic solubility assay = type: physicochemical; conditions: for Solubility (in words): mixture 1 vol.% DMSO and 99 vol.% PBS buffer; for solubility: PBS buffer with 1% DMSO, 4 °C, aqueous buffer, kinetic from dmso stock, 1% DMSO, 99% PBS buffer (pH 7.4)
Experimental: Solubility Assay. A 100 mL flask with phosphate-buffered saline was prepared from NaCl, KCI, Na2HPO4, KH2PO4, and distilled water. The buffer was adjusted to pH 7.4 with HCl. Afterwards, 10mM stock solutions of compounds in DMSO were prepared. 10 µL compound stock solution was added to 990 µL PBS in Eppendorf tubes. As a reference, 10 µL compound stock solution was added to 990 µL HPLC-grade MeOH in Eppendorf tubes. All tubes were centrifuged (16000 relative centrifugal force, 4 °C, 20 min). Subsequently, 600 µL supernatant was extracted carefully and filled into HPLC vials. […] Compounds solubility was calculated by AUC of compound in PBS divided by AUC of reference solution multiplied by concentration of the compound in solution.

HEK293 cells = test: RealTime-Glo MT cell viability assay; type: cell-based; conditions: concentrations of 1 µM and below, up to 72 h
Experimental: Cell viability studies. […].
Cell Viability Assay. RealTime-Glo™ MT Cell Viability Assay (Promega Corporation, Madison, WI, USA) was performed using THP1 cells and HEK293 cells as indicated in the manufacturer's manual to measure a compound's cytotoxicity on cells. In brief, in a white solid-bottom 96-well plate cells (5x10^3/well) were seeded and incubated with the respective compounds diluted in DMEM (Gibco, Carlsbad, CA, USA). After cell seeding viability reagent is added. Subsequently, cells were incubated with the compound and viability reagent containing medium at 37 °C, 5% CO2 for 72 h. The luminescence signal was determined after 1, 24, 48, and 72 hours on a GloMax®-Multi Detection System plate reader (Promega Corporation, Madison, Wl, USA).

[3] = ACKR3, HEK293T cells, average value of three independent experiments

T1 sequence (P25106 whole entry): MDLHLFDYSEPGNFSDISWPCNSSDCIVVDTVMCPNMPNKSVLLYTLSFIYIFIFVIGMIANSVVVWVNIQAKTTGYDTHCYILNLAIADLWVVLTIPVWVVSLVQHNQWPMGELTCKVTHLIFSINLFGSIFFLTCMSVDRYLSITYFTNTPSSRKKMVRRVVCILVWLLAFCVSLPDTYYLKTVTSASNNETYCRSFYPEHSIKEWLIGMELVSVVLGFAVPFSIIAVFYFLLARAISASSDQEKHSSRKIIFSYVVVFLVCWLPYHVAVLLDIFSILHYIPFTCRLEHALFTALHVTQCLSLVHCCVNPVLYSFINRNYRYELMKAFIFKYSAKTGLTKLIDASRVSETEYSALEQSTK
T1 sequence (P49407 whole entry partner): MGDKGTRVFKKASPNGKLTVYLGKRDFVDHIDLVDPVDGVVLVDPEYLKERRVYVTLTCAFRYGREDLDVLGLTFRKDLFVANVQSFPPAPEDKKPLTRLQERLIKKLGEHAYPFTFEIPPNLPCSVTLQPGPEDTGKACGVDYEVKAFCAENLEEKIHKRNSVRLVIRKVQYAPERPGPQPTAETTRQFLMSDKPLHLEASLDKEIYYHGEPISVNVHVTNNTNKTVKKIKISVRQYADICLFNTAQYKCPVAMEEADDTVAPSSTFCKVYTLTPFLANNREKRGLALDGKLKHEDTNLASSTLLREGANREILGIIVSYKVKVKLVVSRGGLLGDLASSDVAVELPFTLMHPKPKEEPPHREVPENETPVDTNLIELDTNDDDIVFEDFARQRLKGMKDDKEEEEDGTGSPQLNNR

SMILES	EC50 (human ACKR3; [3]) [µM]	P-Selectin expression reduction (platelets [1])	Efficacy (Emax) vs CXCL12 (human ACKR3) [%]	other results
O=C(NCC1CCCN(Cc2ccccc2)C1)c1ccc(-c2ccccc2)s1 (stereo not shown) [Compound 39, N-((1-benzylpiperidin-3-yl)methyl)-5-phenylthiophene-2-carboxamide]	1.22	42±9%	–	–
COc1cc(C(=O)N(CCC2CCCN2C)C/C(C)=C/c2ccccc2F)cc(OC)c1OC (stereo not shown) [VUF11207, reference compound]	0.0436	65% and 65±6%	95	platelet aggregation (in words) (platelets [2]): reduction of platelet aggregation
O=C(NCCCN(CCc1ccccc1)Cc1ccccc1)c1ccc(-c2ccccc2)s1 [Compound 29, N-(3-(benzyl(phenethyl)amino)propyl)-5-phenylthiophene-2-carboxamide]	0.459	2±8%	–	–
CC(C)(C)OC(=O)NCCCNC(=O)c1ccc(-c2ccccc2)s1 [Compound 33, tert-butyl (3-(5-phenylthiophene-2-carboxamido)propyl)carbamate]	–	0±4%	–	β-Arrestin recruitment EC50 (human ACKR3; [3]): no activity
CC(C)(C)OC(=O)N1CCN(CCCNC(=O)c2csc(-c3ccccc3)n2)CC1 [Compound 46, tert-butyl 4-(3-(2-phenylthiazole-4-carboxamido)propyl)piperazine-1-carboxylate]	2.7	86%	65	–
O=C(NCCCN(CCCO)Cc1ccccc1)c1ccc(-c2ccccc2)s1 [Compound 28, N-(3-(benzyl(3-hydroxypropyl)amino)propyl)-5-phenylthiophene-2-carboxamide]	0.413	85±4%	–	–
CCCN(CCCNC(=O)c1ccc(-c2ccccc2)s1)Cc1ccccc1 [Compound 26, N-(3-(benzyl(propyl)amino)propyl)-5-phenylthiophene-2-carboxamide]	–	76±7%	–	Solubility (in words) (Kinetic solubility assay): good solubility
O=C(NCCCN(CCCc1ccccc1)Cc1ccccc1)c1ccc(-c2ccccc2)s1 [Compound 30, N-(3-(benzyl(3-phenylpropyl)amino)propyl)-5-phenylthiophene-2-carboxamide]	1.06	1±5%	–	Solubility (in words) (Kinetic solubility assay): good solubility
CCN(CCCNC(=O)c1ccc(-c2cccc(F)c2)s1)Cc1ccc(F)cc1 [Compound 32, N-(3-(ethyl(4-fluorobenzyl)amino)propyl)-5-(3-fluorophenyl)thiophene-2-carboxamide]	–	96±1%	–	–
O=C(c1ccc(-c2ccccc2)s1)N1CCCN(Cc2ccccc2)CC1 [Compound 40, (4-benzyl-1,4-diazepan-1-yl)(5-phenylthiophen-2-yl)methanone]	1.2	76%	32	–
CC(C)(C)OC(=O)N1CCN(CCCNCc2csc(-c3ccccc3)n2)CC1 [Compound 47, tert-butyl 4-(3-(((2-phenylthiazol-4-yl)methyl)amino)propyl)piperazine-1-carboxylate]	2.4	100%	89	–
CCN(CCCNC(=O)c1ccc(-c2cccc(F)c2)s1)Cc1ccccc1 [Compound 31, N-(3-(benzyl(ethyl)amino)propyl)-5-(3-fluorophenyl)thiophene-2-carboxamide]	–	95±1%	–	–
O=C(NCCCN(Cc1ccccc1)C1CC1)c1ccc(-c2ccccc2)s1 [Compound 25, N-(3-(benzyl(cyclopropyl)amino)propyl)-5-phenylthiophene-2-carboxamide]	–	16±7%	–	–
CCN(CCCNC(=O)c1ccc(-c2ccccc2)s1)Cc1ccccc1 [Compound 23, N-(3-(benzyl(ethyl)amino)propyl)-5-phenylthiophene-2-carboxamide]	0.111	–	–	cell toxicity / tolerability (in words) (HEK293 cells): tolerated well; platelet aggregation (in words) (platelets [2]): highest potency for platelet aggregation inhibition; solubility (Kinetic solubility assay): 30 µg/mL; solubility (Kinetic solubility assay; average of three independent experiments ± SEM): 75 ± 1 µM
CC(C)(C)OC(=O)N1CCCN(C(=O)c2csc(-c3ccccc3)n2)CC1 [Compound 45, tert-butyl 4-(2-phenylthiazole-4-carbonyl)-1,4-diazepane-1-carboxylate]	5	93%	29	–
CC(C)(C)OC(=O)N1CCN(CCNC(=O)c2cc3ccccc3s2)CC1 [Compound 49, tert-butyl 4-(2-(benzo[b]thiophene-2-carboxamido)ethyl)piperazine-1-carboxylate]	4.55	70%	25	–
